Measured values from BigSolDB 2.1.

O=C1C=CC(=O)N1c1ccccc1Br
solubility (mole fraction) (in DMF, 278.15 K): 0.141 | solubility (mole fraction) (in DMF, 283.15 K): 0.163 | solubility (mole fraction) (in DMF, 288.15 K): 0.189 | solubility (mole fraction) (in DMF, 293.15 K): 0.219 | solubility (mole fraction) (in DMF, 298.15 K): 0.253 | solubility (mole fraction) (in DMF, 303.15 K): 0.284 | solubility (mole fraction) (in DMF, 308.15 K): 0.318 | solubility (mole fraction) (in DMF, 313.15 K): 0.363 | solubility (mole fraction) (in DMF, 318.15 K): 0.411 | solubility (mole fraction) (in DMF, 323.15 K): 0.473 | solubility (mole fraction) (in DMSO, 293.15 K): 0.156 | solubility (mole fraction) (in DMSO, 298.15 K): 0.177 | solubility (mole fraction) (in DMSO, 303.15 K): 0.21 | solubility (mole fraction) (in DMSO, 308.15 K): 0.238 | solubility (mole fraction) (in DMSO, 313.15 K): 0.288 | solubility (mole fraction) (in DMSO, 318.15 K): 0.327 | solubility (mole fraction) (in DMSO, 323.15 K): 0.387 | solubility (mole fraction) (in NMP, 278.15 K): 0.117 | solubility (mole fraction) (in NMP, 283.15 K): 0.131 | solubility (mole fraction) (in NMP, 288.15 K): 0.154 | solubility (mole fraction) (in NMP, 293.15 K): 0.179 | solubility (mole fraction) (in NMP, 298.15 K): 0.212 | solubility (mole fraction) (in NMP, 303.15 K): 0.245 | solubility (mole fraction) (in NMP, 308.15 K): 0.284 | solubility (mole fraction) (in NMP, 313.15 K): 0.324 | solubility (mole fraction) (in NMP, 318.15 K): 0.372 | solubility (mole fraction) (in NMP, 323.15 K): 0.424 | solubility (mole fraction) (in acetone, 278.15 K): 0.0947 | solubility (mole fraction) (in acetone, 283.15 K): 0.108 | solubility (mole fraction) (in acetone, 288.15 K): 0.125 | solubility (mole fraction) (in acetone, 293.15 K): 0.144 | solubility (mole fraction) (in acetone, 298.15 K): 0.164 | solubility (mole fraction) (in acetone, 303.15 K): 0.19 | solubility (mole fraction) (in acetone, 308.15 K): 0.223 | solubility (mole fraction) (in acetone, 313.15 K): 0.263 | solubility (mole fraction) (in acetone, 318.15 K): 0.306 | solubility (mole fraction) (in acetone, 323.15 K): 0.356 | solubility (mole fraction) (in acetonitrile, 278.15 K): 0.0291 | solubility (mole fraction) (in acetonitrile, 283.15 K): 0.0347 | solubility (mole fraction) (in acetonitrile, 288.15 K): 0.0422 | solubility (mole fraction) (in acetonitrile, 293.15 K): 0.0521 | solubility (mole fraction) (in acetonitrile, 298.15 K): 0.0621 | solubility (mole fraction) (in acetonitrile, 303.15 K): 0.0723 | solubility (mole fraction) (in acetonitrile, 308.15 K): 0.0857 | solubility (mole fraction) (in acetonitrile, 313.15 K): 0.103 | solubility (mole fraction) (in acetonitrile, 318.15 K): 0.121 | solubility (mole fraction) (in acetonitrile, 323.15 K): 0.139 | solubility (mole fraction) (in cyclohexane, 278.15 K): 0.00188 | solubility (mole fraction) (in cyclohexane, 283.15 K): 0.00224 | solubility (mole fraction) (in cyclohexane, 288.15 K): 0.00275 | solubility (mole fraction) (in cyclohexane, 293.15 K): 0.00344 | solubility (mole fraction) (in cyclohexane, 298.15 K): 0.00403 | solubility (mole fraction) (in cyclohexane, 303.15 K): 0.00487 | solubility (mole fraction) (in cyclohexane, 308.15 K): 0.00597 | solubility (mole fraction) (in cyclohexane, 313.15 K): 0.00744 | solubility (mole fraction) (in cyclohexane, 318.15 K): 0.00927 | solubility (mole fraction) (in cyclohexane, 323.15 K): 0.0117 | solubility (mole fraction) (in ethanol, 278.15 K): 0.0113 | solubility (mole fraction) (in ethanol, 283.15 K): 0.0134 | solubility (mole fraction) (in ethanol, 288.15 K): 0.0163 | solubility (mole fraction) (in ethanol, 293.15 K): 0.0204 | solubility (mole fraction) (in ethanol, 298.15 K): 0.0245 | solubility (mole fraction) (in ethanol, 303.15 K): 0.0287 | solubility (mole fraction) (in ethanol, 308.15 K): 0.0341 | solubility (mole fraction) (in ethanol, 313.15 K): 0.0411 | solubility (mole fraction) (in ethanol, 318.15 K): 0.0481 | solubility (mole fraction) (in ethanol, 323.15 K): 0.0556 | solubility (mole fraction) (in ethylene glycol, 278.15 K): 0.00377 | solubility (mole fraction) (in ethylene glycol, 283.15 K): 0.00451 | solubility (mole fraction) (in ethylene glycol, 288.15 K): 0.0055 | solubility (mole fraction) (in ethylene glycol, 293.15 K): 0.00661 | solubility (mole fraction) (in ethylene glycol, 298.15 K): 0.00819 | solubility (mole fraction) (in ethylene glycol, 303.15 K): 0.00983 | solubility (mole fraction) (in ethylene glycol, 308.15 K): 0.0115 | solubility (mole fraction) (in ethylene glycol, 313.15 K): 0.0134 | solubility (mole fraction) (in ethylene glycol, 318.15 K): 0.016 | solubility (mole fraction) (in ethylene glycol, 323.15 K): 0.0184 | solubility (mole fraction) (in isobutanol, 278.15 K): 0.00649 | solubility (mole fraction) (in isobutanol, 283.15 K): 0.00819 | solubility (mole fraction) (in isobutanol, 288.15 K): 0.00989 | solubility (mole fraction) (in isobutanol, 293.15 K): 0.0117 | solubility (mole fraction) (in isobutanol, 298.15 K): 0.0141 | solubility (mole fraction) (in isobutanol, 303.15 K): 0.0173 | solubility (mole fraction) (in isobutanol, 308.15 K): 0.0204 | solubility (mole fraction) (in isobutanol, 313.15 K): 0.0234 | solubility (mole fraction) (in isobutanol, 318.15 K): 0.0276 | solubility (mole fraction) (in isobutanol, 323.15 K): 0.0328 | solubility (mole fraction) (in isopropanol, 278.15 K): 0.00861 | solubility (mole fraction) (in isopropanol, 283.15 K): 0.0104 | solubility (mole fraction) (in isopropanol, 288.15 K): 0.0126 | solubility (mole fraction) (in isopropanol, 293.15 K): 0.0157 | solubility (mole fraction) (in isopropanol, 298.15 K): 0.019 | solubility (mole fraction) (in isopropanol, 303.15 K): 0.0221 | solubility (mole fraction) (in isopropanol, 308.15 K): 0.0261 | solubility (mole fraction) (in isopropanol, 313.15 K): 0.0317 | solubility (mole fraction) (in isopropanol, 318.15 K): 0.0375 | solubility (mole fraction) (in isopropanol, 323.15 K): 0.0429 | solubility (mole fraction) (in methanol, 278.15 K): 0.0134 | solubility (mole fraction) (in methanol, 283.15 K): 0.0162 | solubility (mole fraction) (in methanol, 288.15 K): 0.0199 | solubility (mole fraction) (in methanol, 293.15 K): 0.0249 | solubility (mole fraction) (in methanol, 298.15 K): 0.03 | solubility (mole fraction) (in methanol, 303.15 K): 0.0356 | solubility (mole fraction) (in methanol, 308.15 K): 0.0421 | solubility (mole fraction) (in methanol, 313.15 K): 0.0514 | solubility (mole fraction) (in methanol, 318.15 K): 0.0604 | solubility (mole fraction) (in methanol, 323.15 K): 0.0702 | solubility (mole fraction) (in n-butanol, 278.15 K): 0.00586 | solubility (mole fraction) (in n-butanol, 283.15 K): 0.00717 | solubility (mole fraction) (in n-butanol, 288.15 K): 0.00848 | solubility (mole fraction) (in n-butanol, 293.15 K): 0.0106 | solubility (mole fraction) (in n-butanol, 298.15 K): 0.0127 | solubility (mole fraction) (in n-butanol, 303.15 K): 0.0147 | solubility (mole fraction) (in n-butanol, 308.15 K): 0.0172 | solubility (mole fraction) (in n-butanol, 313.15 K): 0.021 | solubility (mole fraction) (in n-butanol, 318.15 K): 0.0247 | solubility (mole fraction) (in n-butanol, 323.15 K): 0.0284 | solubility (mole fraction) (in n-propanol, 278.15 K): 0.00717 | solubility (mole fraction) (in n-propanol, 283.15 K): 0.00866 | solubility (mole fraction) (in n-propanol, 288.15 K): 0.0106 | solubility (mole fraction) (in n-propanol, 293.15 K): 0.0132 | solubility (mole fraction) (in n-propanol, 298.15 K): 0.016 | solubility (mole fraction) (in n-propanol, 303.15 K): 0.0187 | solubility (mole fraction) (in n-propanol, 308.15 K): 0.0225 | solubility (mole fraction) (in n-propanol, 313.15 K): 0.0271 | solubility (mole fraction) (in n-propanol, 318.15 K): 0.0323 | solubility (mole fraction) (in n-propanol, 323.15 K): 0.0372 | solubility (mole fraction) (in water, 278.15 K): 0.000175 | solubility (mole fraction) (in water, 283.15 K): 0.000217 | solubility (mole fraction) (in water, 288.15 K): 0.000277 | solubility (mole fraction) (in water, 293.15 K): 0.000348 | solubility (mole fraction) (in water, 298.15 K): 0.000443 | solubility (mole fraction) (in water, 303.15 K): 0.000543 | solubility (mole fraction) (in water, 308.15 K): 0.000684 | solubility (mole fraction) (in water, 313.15 K): 0.000812 | solubility (mole fraction) (in water, 318.15 K): 0.000979 | solubility (mole fraction) (in water, 323.15 K): 0.00119
